Data published in article PMC11356821, “A New Class of Benzo[b]thiophene-chalcones as Cholinesterase Inhibitors: Synthesis, Biological Evaluation, Molecular Docking and ADME Studies” (Molecules, 2024).

How the values were obtained:
[1] = target: electrophorus electricus AChE (Electrophorus electricus, UniProt O42275); assay: AChE inhibition, Ellman's method; type: biochemical; conditions: for AChE (I %): inhibition at 50 µM; for inhibition at 50 µM: read-out: AChE (I %)
Procedure: The potential effects of the synthesized compounds 4a–4i and 5a–5i on AChE and BChE were performed using electrophorus electricus AChE and equine serum BChE due to their low cost and high degree of similarity with their respective human enzymes. For the first screenings, they are excellent and widely used in vitro models.
AChE (EC EC 3.1.1.7) from electrophorus electricus and equine serum BChE (EC 3.1.1.8) were used for the inhibitory assays. ChE inhibitory activity was evaluated using Ellman’s method, as previously described, with slight modifications. The reaction mixture was prepared by dissolving acetylthiocholine iodide (1.5 mM), 5,5’-dithiobis-2-nitrobenzoate (DTNB) (1.5 mM) and the inhibitor (at the desired concentrations) or DMSO alone (control) in 0.1 M phosphate buffer (pH 8.0) to a final volume of 200 µL. The enzyme was added to the reaction mixture and the absorbance was monitored at 405 nm as soon as it was added. This test is based on the AChE enzyme hydrolyzing acetylthiocholine to produce acetate and thiocholine. Thiocholine reacts with DTNB to produce a yellow-colored anion. For the BChE assay, we followed the same procedures as above but used BChE as the enzyme and S-butyrylthiocholine chloride (BTCI) as the substrate. […] Galantamine is considered as a positive control under the same experimental conditions.

[2] = target: T1, equine serum BChE (Equus caballus, UniProt P81908); assay: biochemical; conditions: for BChE (I %): inhibition at 50 µM; for inhibition at 50 µM: read-out: BChE (I %)
T1 construct: from tissue; host or cells: equine serum
T1 sequence (P81908 whole entry): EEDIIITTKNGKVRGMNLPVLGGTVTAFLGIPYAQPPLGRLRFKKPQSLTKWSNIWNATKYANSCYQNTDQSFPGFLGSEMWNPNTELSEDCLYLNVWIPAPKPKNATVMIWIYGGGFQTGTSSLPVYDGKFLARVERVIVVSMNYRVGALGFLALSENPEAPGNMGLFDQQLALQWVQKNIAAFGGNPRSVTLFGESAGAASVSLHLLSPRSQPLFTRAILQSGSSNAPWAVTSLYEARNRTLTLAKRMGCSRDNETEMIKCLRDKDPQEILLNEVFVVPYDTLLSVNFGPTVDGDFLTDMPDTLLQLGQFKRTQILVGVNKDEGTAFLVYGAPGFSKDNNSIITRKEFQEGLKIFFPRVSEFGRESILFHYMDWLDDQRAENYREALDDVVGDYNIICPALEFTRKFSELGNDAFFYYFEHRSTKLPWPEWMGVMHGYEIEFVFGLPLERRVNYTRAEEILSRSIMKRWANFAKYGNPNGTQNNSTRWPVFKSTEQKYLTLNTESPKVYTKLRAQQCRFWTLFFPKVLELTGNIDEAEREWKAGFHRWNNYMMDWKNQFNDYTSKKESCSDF
Procedure: AChE (EC EC 3.1.1.7) from electrophorus electricus and equine serum BChE (EC 3.1.1.8) were used for the inhibitory assays. ChE inhibitory activity was evaluated using Ellman’s method, as previously described, with slight modifications. The reaction mixture was prepared by dissolving acetylthiocholine iodide (1.5 mM), 5,5’-dithiobis-2-nitrobenzoate (DTNB) (1.5 mM) and the inhibitor (at the desired concentrations) or DMSO alone (control) in 0.1 M phosphate buffer (pH 8.0) to a final volume of 200 µL. The enzyme was added to the reaction mixture and the absorbance was monitored at 405 nm as soon as it was added. This test is based on the AChE enzyme hydrolyzing acetylthiocholine to produce acetate and thiocholine. Thiocholine reacts with DTNB to produce a yellow-colored anion. For the BChE assay, we followed the same procedures as above but used BChE as the enzyme and S-butyrylthiocholine chloride (BTCI) as the substrate.

[3] = Solubility in DMSO; type: physicochemical
[4] = test system: SH-SY5Y cells; assay: Cell viability, MTT assay; type: cell-based; conditions: 24 h, at IC50 concentrations
Procedure: Therefore, their impact on the viability of SH-SY5Y cells (neuroblastoma cell line) has been studied. For cell viability experiments, the compounds were tested at different concentrations (0, 30, 50, 100 and 200 μM) for 24 h and analyzed using the MTT test.
Human neuroblastoma cell line SH-SY5Y was obtained from ICLC Cell bank (cat. # HTL95013). The cells were cultured in high-glucose DMEM supplemented with 10% fetal bovine serum, 100 units/mL of penicillin and 100 µg/mL of streptomycin (all from Gibco, Life sciences; Thermo Fisher Scientific, Waltham, MA, USA) and maintained at 37 °C in a humidified atmosphere of 5% CO2 and 95% air. Cell viability was detected by the colorimetric 3-(4,5 dimethylthiazol-2-yl)-2,5-diphenyltetrazolium bromide (MTT) assay, as previously described, with minor modifications. Briefly, 1.5 × 10^4 cells/well were seeded in 96-well plates and incubated for 24 h with different concentrations (30–200 μM) of compounds. After incubation, 100 μL of the MTT reagent (0.5 mg/mL in DMEM) was added, and the cells were incubated for 3 h at 37 °C. The resulting violet formazan precipitate was dissolved in DMSO and quantified by spectrophotometry at 570 nm using a microplate reader (VANTAstar_BMG LABTECH GmbH, Offenburg, Germany). Viability data were reported in the percentage of control for each compound.

Sequence of electrophorus electricus AChE (O42275 24-633): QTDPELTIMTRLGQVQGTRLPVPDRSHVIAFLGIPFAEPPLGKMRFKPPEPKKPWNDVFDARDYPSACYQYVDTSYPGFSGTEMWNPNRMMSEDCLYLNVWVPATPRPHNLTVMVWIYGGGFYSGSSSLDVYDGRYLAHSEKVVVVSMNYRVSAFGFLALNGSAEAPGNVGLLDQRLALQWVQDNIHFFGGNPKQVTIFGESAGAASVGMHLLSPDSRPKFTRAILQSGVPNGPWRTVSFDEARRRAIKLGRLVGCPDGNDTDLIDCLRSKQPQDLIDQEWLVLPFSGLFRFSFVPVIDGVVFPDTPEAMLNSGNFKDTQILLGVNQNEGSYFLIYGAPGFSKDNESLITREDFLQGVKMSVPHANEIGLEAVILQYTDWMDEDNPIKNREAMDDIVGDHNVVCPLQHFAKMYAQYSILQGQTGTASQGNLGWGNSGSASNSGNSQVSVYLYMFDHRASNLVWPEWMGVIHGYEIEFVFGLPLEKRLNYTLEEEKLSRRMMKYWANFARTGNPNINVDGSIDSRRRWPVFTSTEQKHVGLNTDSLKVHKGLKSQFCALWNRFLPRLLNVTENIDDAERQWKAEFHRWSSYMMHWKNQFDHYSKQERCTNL

Row | Compound | inhibition at 50 µM [1] | inhibition at 50 µM [2] | further results
1 | c1ccc(-c2cc3ccccc3s2)cc1 [Compound 4a, 2-Phenylbenzothiophene] |  |  | AChE (I %) [1]: Ins.; BChE (I %) [2]: Ins.; solubility in dimethyl sulfoxide (DMSO) [3]: insoluble
2 | O=[N+]([O-])c1ccc(-c2cc3ccccc3s2)cc1 [Compound 4b, 2-(4-Nitrophenyl)benzothiophene] | 8.2% | 2.29% | 
3 | COc1ccc(-c2cc3ccccc3s2)cc1 [Compound 4c, 2-(4-Methoxyphenyl)benzothiophene] | 9.6% | 1.2% | 
4 | N#Cc1ccc(-c2cc3ccccc3s2)cc1 [Compound 4d, 4-(Benzothiophene-2-yl)benzonitrile] |  |  | AChE (I %) [1]: Ins.; BChE (I %) [2]: Ins.; solubility in dimethyl sulfoxide (DMSO) [3]: insoluble
5 | FC(F)(F)c1ccc(-c2cc3ccccc3s2)cc1 [Compound 4e, 2-(4-Trifluoromethylphenyl)benzothiophene] |  |  | AChE (I %) [1]: Ins.; BChE (I %) [2]: Ins.; solubility in dimethyl sulfoxide (DMSO) [3]: insoluble
6 | Clc1ccc(-c2cc3ccccc3s2)cc1 [Compound 4f, 2-(4-Chlorophenyl)benzothiophene] |  |  | AChE (I %) [1]: Ins.; BChE (I %) [2]: Ins.; solubility in dimethyl sulfoxide (DMSO) [3]: insoluble
7 | Cc1ccc(-c2cc3ccccc3s2)cc1 [Compound 4g, 2-(4-Methylphenyl)benzothiophene] |  |  | AChE (I %) [1]: Ins.; BChE (I %) [2]: Ins.; solubility in dimethyl sulfoxide (DMSO) [3]: insoluble
8 | Nc1ccc(-c2cc3ccccc3s2)cc1 [Compound 4h, 2-(4-aminophenyl)benzothiophene] |  | 10.2% | 
9 | Oc1ccc(-c2cc3ccccc3s2)cc1 [Compound 4i, 2-(4-hydroxyphenyl)benzothiophene] | 8.19% | 13.6% | 
10 | O=C(c1ccccc1)c1c(-c2ccccc2)sc2ccccc12 [Compound 5a, 3-Benzoyl-2-phenylbenzothiophene] | 20.8% | 35.7% | IC50 [2]: 83.4 ± 1.2 µM; cytotoxic effects on cell viability [4]: no cytotoxic effects
11 | O=C(c1ccc([N+](=O)[O-])cc1)c1c(-c2ccc([N+](=O)[O-])cc2)sc2ccccc12 [Compound 5b, 3-(4-Nitrobenzoyl)-2-(4-nitrophenyl)benzothiophene] | 11% | 16.8% | 
12 | COc1ccc(C(=O)c2c(-c3ccc(OC)cc3)sc3ccccc23)cc1 [Compound 5c, 3-(4-Methoxybenzoyl)-2-(4-methoxyphenyl)benzothiophene] | 3.5% | 11.9% | 
13 | N#Cc1ccc(C(=O)c2c(-c3ccc(C#N)cc3)sc3ccccc23)cc1 [Compound 5d, 4-Cianophenyl-[2-(4-cianophenyl)-benzothiophen-3-yl]-methanone] | 4.5% | 14% | 
14 | O=C(c1ccc(C(F)(F)F)cc1)c1c(-c2ccc(C(F)(F)F)cc2)sc2ccccc12 [Compound 5e, 3-(4-Trifluoromethylbenzoyl)-2-(4-trifluoromethylphenil)benzothiophene] | 10% | 3.1% | 
15 | O=C(c1ccc(Cl)cc1)c1c(-c2ccc(Cl)cc2)sc2ccccc12 [Compound 5f, 3-(4-Chlorobenzoyl)-2-(4-chlorophenyl)benzothiophene] | 39.9% | 23.1% | IC50 [1]: 62.1 ± 1.2 µM; cytotoxic effects on cell viability [4]: no cytotoxic effects
16 | Cc1ccc(C(=O)c2c(-c3ccc(C)cc3)sc3ccccc23)cc1 [Compound 5g, 3-(4-Methylbenzoyl)-2-(4-methylphenyl)benzothiophene] | 28.3% | 13.1% | 
17 | Nc1ccc(C(=O)c2c(-c3ccc(N)cc3)sc3ccccc23)cc1 [Compound 5h, 3-(4-aminobenzoyl)-2-(4-aminophenyl)benzothiophene] |  | 58.3% | IC50 [2]: 24.3 ± 0.5 µM; cytotoxic effects on cell viability [4]: no cytotoxic effects
18 | O=C(c1ccc(O)cc1)c1c(-c2ccc(O)cc2)sc2ccccc12 [Compound 5i, 3-(4-hydroxybenzoyl)-2-(4-hydroxyphenyl)benzothiophene] | 19.3% | 42.2% | IC50 [2]: 59.6 ± 11.6 µM; cytotoxic effects on cell viability [4]: no cytotoxic effects
